The target in the experiment is T1, Mushroom tyrosinase.
T1 construct: gene PPO3; commercial native mushroom tyrosinase (Sigma), isoenzyme mixture
Put plainly: absorbance at […] nm, […] min. It counts as biochemical. Particulars: L-tyrosine substrate (1 mL of 100 mg/L); sodium phosphate buffer; DMSO stock; alpha or beta anomer not stated.

A word on the IC50: it is the concentration that gives 50% inhibition.

Values after ≈ are worked out from the molar mass of the structure shown.

On to `OC[C@H]1O[C@@H](Oc2ccc(O)cc2)[C@H](O)[C@@H](O)[C@@H]1O` [arbutin], for which the IC50 is 56 ± 12 µg/mL (≈ 206 µM).

Values taken from paper PMC6276509, “Evaluation of Tyrosinase Inhibitory, Antioxidant, Antimicrobial, and Antiaging Activities of Magnolia officinalis Extracts after Aspergillus niger Fermentation” (BioMed Research International, 2018).
